From patent US4528296A, “Derivatives of aminopyridinecarboxylic acids and pharmaceutical compositions containing them” (Simes, Societa Italiana Medicinalle Sintetici, priority 1982, dated 1985)

Key:
enkephalinase [1] = biological target: T1, enkephalinase (Rattus norvegicus, UniProt P07861); experiment: Inhibition of enkephalinase, particulate fraction of rat striata, 3H-Tyr-Leucine-Enkephalin substrate; format: biochemical, rats; details: read-out: Drug concentration which inhibits 50% of the enzymatic activities (IC50(M)), Enkephalinase
T1 construct: enzymatic preparation extracted from the particulate fraction of striata of rats; from tissue; host or cells: rat striatum, particulate fraction purified on discontinuous sucrose gradient
T1 sequence (P07861 1-750): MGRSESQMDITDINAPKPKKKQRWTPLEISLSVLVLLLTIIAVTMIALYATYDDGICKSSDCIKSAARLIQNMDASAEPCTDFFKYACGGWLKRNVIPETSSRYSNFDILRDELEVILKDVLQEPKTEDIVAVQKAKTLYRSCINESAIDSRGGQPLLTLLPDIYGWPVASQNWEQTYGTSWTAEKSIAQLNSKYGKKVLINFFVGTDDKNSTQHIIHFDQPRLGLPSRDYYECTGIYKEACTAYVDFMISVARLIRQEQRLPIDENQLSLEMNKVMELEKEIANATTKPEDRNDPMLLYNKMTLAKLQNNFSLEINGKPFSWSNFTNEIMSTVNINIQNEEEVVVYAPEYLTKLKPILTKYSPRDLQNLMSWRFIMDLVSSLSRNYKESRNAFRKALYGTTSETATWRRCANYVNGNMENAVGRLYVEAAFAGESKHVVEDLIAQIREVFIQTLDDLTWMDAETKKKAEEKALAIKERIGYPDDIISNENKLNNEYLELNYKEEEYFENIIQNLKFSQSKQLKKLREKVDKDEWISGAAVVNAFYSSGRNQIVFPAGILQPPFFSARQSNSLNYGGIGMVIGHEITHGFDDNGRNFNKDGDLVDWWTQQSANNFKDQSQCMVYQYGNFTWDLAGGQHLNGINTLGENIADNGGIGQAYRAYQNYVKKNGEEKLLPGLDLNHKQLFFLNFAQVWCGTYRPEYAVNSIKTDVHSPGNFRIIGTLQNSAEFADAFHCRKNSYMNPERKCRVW
Source text: The evaluation of the inhibitory effect on enkephalinase and on aminopeptidase activity respectively has been made as follows:
(a) enkephalinase: it has been used the enzymatic preparation extracted from the particulate fraction of striata of rats purified on discontinous gradient of sucrose (Blumberg et al., Life Sci., 28, (1981), 301); the evaluation of the enzymatic activity has been made using ^3 H-Tyr-Leucine-Enkephalin as substrate (Vogel and Alstein, FEBS Lett., 80, (1977), 332).

amino peptidase = biological target: T2, amino peptidase (Rattus norvegicus, UniProt F1M9V7); experiment: Inhibition of amino peptidase, soluble fraction of rat striata, 3H-Tyr-Leucine-Enkephalin substrate; format: biochemical, rats; details: read-out: Drug concentration which inhibits 50% of the enzymatic activities (IC50(M)), Amino Peptidase
T2 construct: as enzyme source it has been used the soluble fraction of point (a) above; from tissue; host or cells: rat striatum, soluble fraction
T2 sequence (F1M9V7 1-920): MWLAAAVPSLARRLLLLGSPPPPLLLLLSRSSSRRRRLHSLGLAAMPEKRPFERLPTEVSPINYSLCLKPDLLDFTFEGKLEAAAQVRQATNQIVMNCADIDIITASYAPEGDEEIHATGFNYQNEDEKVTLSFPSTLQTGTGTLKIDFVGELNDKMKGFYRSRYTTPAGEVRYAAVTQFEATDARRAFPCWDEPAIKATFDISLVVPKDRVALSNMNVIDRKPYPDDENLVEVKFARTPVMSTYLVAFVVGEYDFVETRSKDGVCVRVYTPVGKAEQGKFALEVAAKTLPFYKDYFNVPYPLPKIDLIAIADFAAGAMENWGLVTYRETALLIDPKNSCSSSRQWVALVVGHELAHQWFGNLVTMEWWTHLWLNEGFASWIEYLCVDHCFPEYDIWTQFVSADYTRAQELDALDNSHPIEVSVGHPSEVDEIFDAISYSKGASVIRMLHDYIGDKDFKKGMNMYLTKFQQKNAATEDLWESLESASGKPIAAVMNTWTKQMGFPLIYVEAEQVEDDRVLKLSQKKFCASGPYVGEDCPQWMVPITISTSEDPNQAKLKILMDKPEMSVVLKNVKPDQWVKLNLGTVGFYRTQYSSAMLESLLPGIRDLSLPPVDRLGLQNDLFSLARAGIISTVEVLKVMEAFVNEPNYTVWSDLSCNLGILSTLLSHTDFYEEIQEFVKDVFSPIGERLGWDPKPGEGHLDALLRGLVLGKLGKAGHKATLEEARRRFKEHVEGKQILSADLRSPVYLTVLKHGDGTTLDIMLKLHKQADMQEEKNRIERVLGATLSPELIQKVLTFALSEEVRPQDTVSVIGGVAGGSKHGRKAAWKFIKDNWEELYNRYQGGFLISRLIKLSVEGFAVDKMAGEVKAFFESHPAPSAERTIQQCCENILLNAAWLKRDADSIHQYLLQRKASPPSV
Source text: The evaluation of the inhibitory effect on enkephalinase and on aminopeptidase activity respectively has been made as follows: […]

enkephalinase [2] = biological target: T3, enkephalinase (Mus musculus, UniProt Q61391); experiment: Potentiation of Met-Enk analgesia in mice, hot plate test, intracerebral administration; format: in vivo
T3 construct: potentiation of the analgesic effect induced in mice by Methionine-Enkephalin; from tissue; host or cells: endogenous enzyme in the brain of living mice (intracerebral administration)
T3 sequence (Q61391 1-750): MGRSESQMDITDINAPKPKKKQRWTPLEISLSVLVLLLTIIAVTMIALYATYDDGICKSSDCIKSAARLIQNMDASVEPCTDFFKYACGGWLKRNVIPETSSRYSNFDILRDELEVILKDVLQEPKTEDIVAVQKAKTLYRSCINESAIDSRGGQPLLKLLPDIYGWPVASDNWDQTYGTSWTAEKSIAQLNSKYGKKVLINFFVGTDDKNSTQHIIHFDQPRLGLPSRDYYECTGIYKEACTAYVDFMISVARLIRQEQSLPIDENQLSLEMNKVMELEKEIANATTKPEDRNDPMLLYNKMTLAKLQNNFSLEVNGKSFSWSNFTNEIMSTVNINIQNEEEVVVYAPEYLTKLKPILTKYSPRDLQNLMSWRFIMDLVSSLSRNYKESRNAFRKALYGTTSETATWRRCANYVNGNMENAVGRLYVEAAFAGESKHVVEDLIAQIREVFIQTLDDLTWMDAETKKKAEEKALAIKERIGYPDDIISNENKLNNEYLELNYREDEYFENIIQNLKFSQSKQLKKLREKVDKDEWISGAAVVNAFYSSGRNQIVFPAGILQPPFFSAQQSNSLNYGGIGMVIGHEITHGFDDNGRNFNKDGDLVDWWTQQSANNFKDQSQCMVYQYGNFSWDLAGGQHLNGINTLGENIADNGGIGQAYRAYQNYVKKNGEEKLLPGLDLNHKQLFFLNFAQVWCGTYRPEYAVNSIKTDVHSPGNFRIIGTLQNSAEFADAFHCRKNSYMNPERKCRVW

[3] = Acute toxicity in mice after oral administration; format: in vivo; details: mouse, in vivo
Source text: (§1) The acute toxicity of compounds of this invention has been evaluated after oral administration in mice

mice = experiment: Acute toxicity in mice after oral administration; format: in vivo
Source text: as §1

[4] = Met-Enk 50 μg/ic + compound 25 μg/ic
[5] = Met-Enk 50 μg/ic + compound 12,5 μg/ic
[6] = Met-Enk 50 μg/ic + compound 50 μg/ic

Compound	IC50 (enkephalinase [1]) [M]	IC50 (amino peptidase) [M]	further results
COC(=O)c1cncc(N(C)C(=O)C(C)CSC(C)=O)c1 (stereo not shown) [Example 16, methyl 5-(2-acetylthiomethyl-N-methyl-propionamido)-nicotinate]	7e-07	> 1e-06	Latency Time X ± SE (sec) (enkephalinase [2]; Met-Enk 50 μg/ic + compound 5 μg/ic): 14,8 ± 1,1 sec
CC(CS)C(=O)Nc1ccc(C(=O)O)nc1 (stereo not shown) [Example 23, 5-(2-mercaptomethyl-propionamido)-picolinic acid]	2e-07	> 1e-06	Latency Time X ± SE (sec) (enkephalinase [2]; [4]): 26,1 ± 2,1 sec
CC(CS)C(=O)Nc1ccc(C(=O)O)cn1 (stereo not shown) [Example 8, 6-(2-mercaptomethyl-propionamido)-nicotinic acid]	5e-07	> 1e-06	Latency Time X ± SE (sec) (enkephalinase [2]; [5]): 19,6 ± 2,1 sec
CC(CS)C(=O)Nc1cc(C(=O)O)ccn1 (stereo not shown) [Example 31, 2-(2-mercaptomethyl-propionamido)-isonicotinic acid]	5e-07	> 1e-06	Latency Time X ± SE (sec) (enkephalinase [2]; [5]): 15,4 ± 1,2 sec
COC(=O)c1ncccc1NC(=O)C(C)CSC(C)=O (stereo not shown) [Example 24, methyl 3-(2-acetylthiomethyl-propionamido)-picolinate]	–	–	LD50 [3]: 390 mg/kg
CC(C)C[C@H](NC(=O)[C@@H](O)[C@H](N)Cc1ccccc1)C(=O)O [Bestatin, reference compound]	> 1e-06	2e-07	–
COC(=O)c1cncc(NC(=O)C(C)CS)c1 (stereo not shown) [Example 13, methyl 5-(2-mercaptomethyl-propionamido)-nicotinate]	2e-07	> 1e-06	–
Methionine-Enkephalin [Met--Enk, reference compound]	–	–	Latency Time X ± SE (sec) (enkephalinase [2]; Met-Enk alone 50 μg/ic): 14,7 ± 1,3 sec
CC(CS)C(=O)Nc1cncc(C(=O)O)c1 (stereo not shown) [Example 14, 5-(2-mercaptomethyl-propionamido)-nicotinic acid]	5e-08	> 1e-06	Latency Time X ± SE (sec) (enkephalinase [2]; [4]): 27,7 ± 1,5 sec
COC(=O)c1ncccc1NC(=O)C(C)CS (stereo not shown) [Example 25, methyl 3-(2-mercaptomethyl-propionamido)-picolinate]	–	–	LD50 [3]: 329 mg/kg
O=C(O)c1ccnc(NC(=O)C(CS)Cc2ccccc2)c1 (stereo not shown) [Example 28, 2-(2-mercaptomethyl-3-phenyl-propionamido)-isonicotinic acid]	1.8e-09	> 1e-06	Latency Time X ± SE (sec) (enkephalinase [2]; [6]): 27,0 ± 1,6 sec
C[C@H](CSC(=O)c1ccccc1)C(=O)Nc1cncc(C(=O)O)c1 [Example 18a, S(-)-5-(2-benzoylthiomethyl-propionamido)-nicotinic acid]	3e-07	> 1e-06	Latency Time X ± SE (sec) (enkephalinase [2]; [6]): 13,1 ± 0,9 sec
2-(2-acetylthiomethyl-propionamido)-picolinic acid [Example 26]	–	–	LD50 (mice): 421 mg/kg
C[C@H](CS)C(=O)N1CCC[C@H]1C(=O)O [Captopril, 1,-(3-mercapto-2-methyl-1-oxopropyl)-L-proline, reference compound]	> 1e-06	> 1e-06	–
CC(CS)C(=O)N(C)c1cncc(C(=O)O)c1 (stereo not shown) [Example 17, 5-(2-mercaptomethyl-N-methyl-propionamido)-nicotinic acid]	1e-07	> 1e-06	Latency Time X ± SE (sec) (enkephalinase [2]; [6]): 13,8 ± 1,4 sec
